In patent publication US20220152028A1, “COMBINATION DRUG TREATMENT FOR HUMAN CYTOMEGALOVIRUS” (Microbiotix, Inc., priority 2019, published 2022):

What was measured:
[1] = biological target: HCMV DNA polymerase UL54 (Human cytomegalovirus, UniProt P08546); details: higher than GCV-TP; cited from earlier work
[2] = tested on: HCMV (strain AD169); test: Plaque reduction assay in HFF cells infected with HCMV strain AD169; assay type: cell-based, human cytomegalovirus; details: Human betaherpesvirus 5, 216 h, plaque count after 9 days, read-out: EC50, compound tested separately
Procedure: We examined the in vitro anti-HCMV (strain AD169; ATCC #VR-538) activity of filociclovir and letermovir both separately and as triplicate combinations at a concentration range of 0.0064-100 μM, and 0.0064-100 nM, respectively.
Monolayers of human foreskin fibroblasts (HFF cells; ATCC #SCRC-1041) were grown in 1 ml of DMEM (Corning #10-013-CM) containing 10% heat-inactivated fetal bovine serum (Gibco #A38402-01) and 1% penicillin-streptomycin solution (Hyclone #SV30010) in 24-well plates and infected with 100 plaque forming units (PFUs) of HCMV. Following incubation for 1 hr at 37° C., the virus was aspirated and replaced with MEM (Corning #50-010-PB) containing 1% methyl cellulose (Sigma #M-0521) and the various concentrations of filociclovir and letermovir were added as set forth above. A set of wells, designated as non-treated controls, received neither of the two compounds.
Infected plates were incubated for 9 days at 37° C., then fixed and stained with crystal violet stain (0.1% in 20% methanol). The number of plaques in each well was counted and the level of synergism was assessed using MacSynergy™ II (Prichard and Shipman 1990, supra), which provides an overall evaluation of the deviation from the theoretical additive effect of both drugs based on individual dose-response curves.

[3] = tested on: HCMV control strain UL56 wt; test: SEAP reporter susceptibility assay in ARPEp cells, baseline strain; assay type: cell-based, human cytomegalovirus; details: Human betaherpesvirus 5, 144 h, read-out: Mean EC50
Description: (§1) These UL56 amino acid substitutions were introduced into the bacterial artificial chromosome (BAC) clone BD2 of HCMV laboratory strain AD169 modified with a secreted alkaline phosphatase (SEAP) reporter gene, as previously described (Chou, S., Antimicrob. Agents Chemother., 59: 6588-6593 (2015)). The mutagenized BAC clones were transfected into modified retinal epithelial (ARPEp) cells and the recovered infectious recombinant viruses were then genotyped and phenotyped as previously described (Chou et al., Antimicrob. Agents Chemother., 62(9): e00922-18 (2018)).
(§2) Control strains included a baseline strain of wild-type UL56 and a UL97 M460V mutant that is resistant to […]. For susceptibility assays, calibrated viral inocula were added to 24-well plate cultures of ARPEp cells and incubated under a series of filociclovir concentrations, and the concentrations required to reduce SEAP activity by 50% (EC50) at 6 days were determined in duplicate assays on each of 3 to 5 setup dates.

[4] = tested on: HCMV UL97 M460V mutant; test: SEAP reporter susceptibility assay in ARPEp cells, UL97 M460V; assay type: cell-based, human cytomegalovirus
Description: as §1, §2

[5] = tested on: HCMV UL56 mutant V231L; test: SEAP reporter susceptibility assay in ARPEp cells, UL56 V231L; assay type: cell-based, human cytomegalovirus
Description: (§3) In order to test the effect of filociclovir on letermovir-resistant strains, we used 4 HCMV UL56 mutants encountered in clinical practice: V231L, V236M, C325F and C325Y, the latter 2 of which commonly emerged to confer absolute letermovir resistance (Grantham et al., Biol. Blood Marrow Transplant. 25: S344-S345 (2019); Turner et al., Antimicrob. Agents Chemother., 63(3): e02337-18 (2019)).
as §1, §2

[6] = tested on: HCMV UL56 mutant V236M; test: SEAP reporter susceptibility assay in ARPEp cells, UL56 V236M; assay type: cell-based, human cytomegalovirus
Description: as §3, §1, §2

[7] = tested on: HCMV UL56 mutant C325F; test: SEAP reporter susceptibility assay in ARPEp cells, UL56 C325F; assay type: cell-based, human cytomegalovirus
Description: as §3, §1, §2

[8] = tested on: HCMV UL56 mutant C325Y; test: SEAP reporter susceptibility assay in ARPEp cells, UL56 C325Y; assay type: cell-based, human cytomegalovirus
Description: as §3, §1, §2

[9] = tested on: HCMV UL56 mutants (V231L, V236M, C325F, C325Y); test: SEAP reporter susceptibility assay in ARPEp cells, UL56 mutants as a group; assay type: cell-based, human cytomegalovirus; details: Human betaherpesvirus 5, read-out: mean EC50 values against the UL56 mutants tested
Description: as §3, §1, §2

[10] = tested on: HCMV; details: literature statement; cited from earlier work
[11] = Human betaherpesvirus 5, 144 h, read-out: Mean EC50

Sequence of HCMV DNA polymerase UL54 (P08546 whole entry): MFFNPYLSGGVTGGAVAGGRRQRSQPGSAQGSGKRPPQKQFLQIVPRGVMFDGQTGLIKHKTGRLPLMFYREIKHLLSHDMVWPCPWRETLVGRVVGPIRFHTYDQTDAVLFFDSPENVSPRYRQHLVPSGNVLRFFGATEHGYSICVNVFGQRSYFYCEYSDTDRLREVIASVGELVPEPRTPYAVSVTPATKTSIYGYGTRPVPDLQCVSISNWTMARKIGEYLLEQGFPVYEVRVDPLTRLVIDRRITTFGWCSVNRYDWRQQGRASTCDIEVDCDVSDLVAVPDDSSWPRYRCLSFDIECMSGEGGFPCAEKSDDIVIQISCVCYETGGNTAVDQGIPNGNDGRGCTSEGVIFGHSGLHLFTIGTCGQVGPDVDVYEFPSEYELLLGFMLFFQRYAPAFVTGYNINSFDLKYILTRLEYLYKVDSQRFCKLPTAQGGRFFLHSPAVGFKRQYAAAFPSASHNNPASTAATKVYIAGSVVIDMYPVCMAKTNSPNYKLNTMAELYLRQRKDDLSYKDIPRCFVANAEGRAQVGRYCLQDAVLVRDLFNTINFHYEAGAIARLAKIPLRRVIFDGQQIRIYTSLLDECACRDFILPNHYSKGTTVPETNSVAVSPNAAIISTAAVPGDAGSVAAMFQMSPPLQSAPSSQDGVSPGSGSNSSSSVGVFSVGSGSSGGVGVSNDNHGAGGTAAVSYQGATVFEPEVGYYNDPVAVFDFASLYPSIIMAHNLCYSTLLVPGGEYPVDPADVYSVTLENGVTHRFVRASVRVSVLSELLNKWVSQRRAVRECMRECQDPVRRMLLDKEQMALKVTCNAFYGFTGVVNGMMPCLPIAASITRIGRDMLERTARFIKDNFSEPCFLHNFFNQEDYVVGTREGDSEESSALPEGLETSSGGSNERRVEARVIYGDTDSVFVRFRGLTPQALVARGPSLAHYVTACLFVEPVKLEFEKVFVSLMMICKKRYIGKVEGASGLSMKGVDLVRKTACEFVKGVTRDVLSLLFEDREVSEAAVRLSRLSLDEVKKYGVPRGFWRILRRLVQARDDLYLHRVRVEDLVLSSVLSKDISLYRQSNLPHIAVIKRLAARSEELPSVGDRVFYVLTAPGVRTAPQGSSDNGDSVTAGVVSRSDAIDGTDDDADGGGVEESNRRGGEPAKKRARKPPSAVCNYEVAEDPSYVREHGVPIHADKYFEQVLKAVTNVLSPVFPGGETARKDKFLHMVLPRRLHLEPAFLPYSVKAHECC

Row | Compound | affinity to HCMV DNA polymerase UL54 relative to GCV-TP [1] | EC50 [2] [nM] | EC50 [3] [nM] | EC50 [4, 11] [nM] | Ratio = EC50 of mutant/EC50 of wild type control ([4]; UL97 M460V) | EC50 [5, 11] [nM] | Ratio = EC50 of mutant/EC50 of wild type control ([5]; UL56 V231L) | EC50 [6, 11] [nM] | Ratio = EC50 of mutant/EC50 of wild type control ([6]; UL56 V236M) | EC50 [7, 11] [nM] | Ratio = EC50 of mutant/EC50 of wild type control ([7]; UL56 C325F) | EC50 [8, 11] [nM] | Ratio = EC50 of mutant/EC50 of wild type control ([8]; UL56 C325Y) | EC50 [9] [nM] | EC50 values [10]
1 | Nc1nc2c(ncn2/C=C2/CC2(CO)COP(=O)(O)OP(=O)(O)OP(=O)(O)O)c(=O)[nH]1 (stereo not shown) [FCV-TP, FCV triphosphate] | about 10 fold |  |  |  |  |  |  |  |  |  |  |  |  |  | 
2 | Nc1nc2c(ncn2/C=C2/CC2(CO)CO)c(=O)[nH]1 [Filociclovir, (Z)-9-{[2,2-bis-(hydroxymethyl)cyclopropylidene]methyl}guanine] |  | 550 | 430 | 2030 | 4.8 | 290 | 0.69 | 350 | 0.81 | 350 | 0.82 | 380 | 0.89 | 290 to 380 | 
3 | COc1cccc(N2CCN(C3=Nc4c(F)cccc4[C@H](CC(=O)O)N3c3cc(C(F)(F)F)ccc3OC)CC2)c1 [letermovir, 2-[(4S)-8-fluoro-2-[4-(3-methoxyphenyl)piperazin-1-yl]-3-[2-methoxy-5-(trifluoromethyl)phenyl]-4H-quinazolin-4-yl]acetic acid, reference compound] |  | 3 |  |  |  |  |  |  |  |  |  |  |  |  | nanomolar range
